According to the supplement of paper PMC9663587:

compound: CC(=O)c1c(C)c2cnc(Nc3ccc(N4CCNCC4)cn3)nc2n(C2CCCC2)c1=O; experiment: increase in dead-cell fraction, 72 h; higher = more death; conditions: 3.162 µM;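 also: breast cancer cell lines in 384-well plates, stained with Hoechst plus LIVE/DEAD far red dye and imaged, cells above an LDR intensity threshold counted dead, Hoechst-negative corpses included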

Row | Cell Line | increase in dead-cell fraction
1 | 184A1 | 0.0383
2 | AU565 | 0.0446
3 | BT20 | 0.0468
4 | HCC1428 | 0.0097
5 | HCC1500 | 0.0027
6 | MDAMB157 | -0.0011

compound: CCN1CCN(Cc2ccc(Nc3ncc(F)c(-c4cc(F)c5nc(C)n(C(C)C)c5c4)n3)nc2)CC1; experiment: as above; conditions: 0.001 µM

Row | Cell Line | increase in dead-cell fraction
7 | 184A1 | 0.0016
8 | AU565 | 0.0076
9 | BT20 | -0.0036
10 | HCC1428 | -0.0074
11 | HCC1500 | -0.0021
12 | MDAMB157 | -0.0027

same assay, conditions: 0.003162 µM

Row | Cell Line | increase in dead-cell fraction
13 | 184A1 | 0.0047
14 | AU565 | 0.0065
15 | BT20 | -0.0047
16 | HCC1428 | 0.0007
17 | HCC1500 | -0.0174
18 | MDAMB157 | -0.0032

same assay, conditions: 0.01 µM

Row | Cell Line | increase in dead-cell fraction
19 | 184A1 | 0.0067
20 | AU565 | 0.0106
21 | BT20 | -0.0009
22 | HCC1428 | 0.0093
23 | HCC1500 | -0.0129
24 | MDAMB157 | -0.0032

same assay, conditions: 0.03162 µM

Row | Cell Line | increase in dead-cell fraction
25 | 184A1 | 0.0185
26 | AU565 | 0.0354
27 | BT20 | -0.0044
28 | HCC1428 | 0.0115
29 | HCC1500 | -0.0035
30 | MDAMB157 | 0.0011

same assay, conditions: 0.1 µM

Row | Cell Line | increase in dead-cell fraction
31 | 184A1 | 0.0336
32 | AU565 | 0.043
33 | BT20 | 0.0079
34 | HCC1428 | 0.0154
35 | HCC1500 | -0.0151
36 | MDAMB157 | 0.0051

same assay, conditions: 0.3162 µM

Row | Cell Line | increase in dead-cell fraction
37 | 184A1 | 0.0578
38 | AU565 | 0.0403
39 | BT20 | 0.0034
40 | HCC1428 | 0.0035
41 | HCC1500 | -0.0201
42 | MDAMB157 | 0.0141

same assay, conditions: 1 µM

Row | Cell Line | increase in dead-cell fraction
43 | 184A1 | 0.056
44 | AU565 | 0.0369
45 | BT20 | 0.0076
46 | HCC1428 | 0.0027
47 | HCC1500 | -0.015
48 | MDAMB157 | 0.0387

same assay, conditions: 3.162 µM

Row | Cell Line | increase in dead-cell fraction
49 | 184A1 | 0.0434
50 | AU565 | 0.0205
51 | BT20 | 0.0117
52 | HCC1428 | 0.0224
53 | HCC1500 | -0.0276
54 | MDAMB157 | 0.0737

same assay, conditions: 10 µM

Row | Cell Line | increase in dead-cell fraction
55 | 184A1 | 0.229
56 | AU565 | 0.085
57 | BT20 | 0.363
58 | HCC1428 | 0.0617
59 | HCC1500 | 0.0351
60 | MDAMB157 | 0.48

compound: C=CC(=O)Nc1ccc(C(=O)Nc2[nH]nc3c2CN(C(=O)N[C@H](CN(C)C)c2ccccc2)C3(C)C)cc1 [YKL-5-124]; experiment: as above; conditions: 0.001 µM

Row | Cell Line | increase in dead-cell fraction
61 | 184A1 | 0.02
62 | AU565 | 0.0305
63 | BT20 | 0.0021
64 | MCF10A (GM) | 0.22
65 | PDX1206 | -0.009

same assay, conditions: 0.003162 µM

Row | Cell Line | increase in dead-cell fraction
66 | 184A1 | 0.0379
67 | AU565 | 0.0489
68 | BT20 | 0.0037
69 | MCF10A (GM) | 0.329
70 | PDX1206 | -0.0048

same assay, conditions: 0.01 µM

Row | Cell Line | increase in dead-cell fraction
71 | 184A1 | 0.119
72 | AU565 | 0.0994
73 | BT20 | 0.0071
74 | MCF10A (GM) | 0.363
75 | PDX1206 | 0.0238

same assay, conditions: 0.03162 µM

Row | Cell Line | increase in dead-cell fraction
76 | 184A1 | 0.122
77 | AU565 | 0.0877
78 | BT20 | 0.0095
79 | MCF10A (GM) | 0.249
80 | PDX1206 | 0.0116

same assay, conditions: 0.1 µM

Row | Cell Line | increase in dead-cell fraction
81 | 184A1 | 0.147
82 | AU565 | 0.0813
83 | BT20 | 0.0196
84 | MCF10A (GM) | 0.226
85 | PDX1206 | 0.0307

same assay, conditions: 0.3162 µM

Row | Cell Line | increase in dead-cell fraction
86 | 184A1 | 0.0805
87 | AU565 | 0.114
88 | BT20 | 0.01
89 | MCF10A (GM) | 0.293
90 | PDX1206 | 0.0443

same assay, conditions: 1 µM

Row | Cell Line | increase in dead-cell fraction
91 | 184A1 | 0.137
92 | AU565 | 0.113
93 | BT20 | 0.0231
94 | MCF10A (GM) | 0.263
95 | PDX1206 | 0.0358

same assay, conditions: 3.162 µM

Row | Cell Line | increase in dead-cell fraction
96 | 184A1 | 0.179
97 | AU565 | 0.215
98 | BT20 | 0.0292
99 | MCF10A (GM) | 0.218
100 | PDX1206 | 0.0858

same assay, conditions: 10 µM

Row | Cell Line | increase in dead-cell fraction
101 | 184A1 | 0.34
102 | AU565 | 0.524
103 | BT20 | 0.0824
104 | MCF10A (GM) | 0.391
105 | PDX1206 | 0.484

compound: CN(C)C/C=C/C(=O)Nc1ccc(C(=O)Nc2cccc(Nc3ncc(Cl)c(-c4c[nH]c5ccccc45)n3)c2)cc1 [THZ1]; experiment: as above; conditions: 0.0001 µM

Row | Cell Line | increase in dead-cell fraction
106 | 184A1 | -0.0006
107 | AU565 | -0.0048
108 | BT20 | 0.0002
109 | MCF10A (GM) | -0.0002
110 | PDX1206 | -0.0189

same assay, conditions: 0.0003162 µM

Row | Cell Line | increase in dead-cell fraction
111 | 184A1 | 0.0038
112 | AU565 | -0.0064
113 | BT20 | 0.0003
114 | MCF10A (GM) | -0.0005
115 | PDX1206 | 0.0062

same assay, conditions: 0.001 µM

Row | Cell Line | increase in dead-cell fraction
116 | 184A1 | 0.0021
117 | AU565 | -0.0098
118 | BT20 | -0.0025
119 | MCF10A (GM) | -0.0015
120 | PDX1206 | -0.0104

same assay, conditions: 0.003162 µM

Row | Cell Line | increase in dead-cell fraction
121 | 184A1 | 0.0076
122 | AU565 | -0.0018
123 | BT20 | 0.0002
124 | MCF10A (GM) | 0.0003
125 | PDX1206 | -0.008

same assay, conditions: 0.01 µM

Row | Cell Line | increase in dead-cell fraction
126 | 184A1 | 0.0448
127 | AU565 | 0.0038
128 | BT20 | -0.0011
129 | MCF10A (GM) | 0.0067
130 | PDX1206 | -0.0089

same assay, conditions: 0.03162 µM

Row | Cell Line | increase in dead-cell fraction
131 | 184A1 | 0.169
132 | AU565 | 0.0873
133 | BT20 | -0.0033
134 | MCF10A (GM) | 0.127
135 | PDX1206 | 0.0587

same assay, conditions: 0.1 µM

Row | Cell Line | increase in dead-cell fraction
136 | 184A1 | 0.175
137 | AU565 | 0.262
138 | BT20 | -0.0037
139 | MCF10A (GM) | 0.225
140 | PDX1206 | 0.346

same assay, conditions: 0.3162 µM

Row | Cell Line | increase in dead-cell fraction
141 | 184A1 | 0.152
142 | AU565 | 0.48
143 | BT20 | -0.001
144 | MCF10A (GM) | 0.256
145 | PDX1206 | 0.424

same assay, conditions: 1 µM

Row | Cell Line | increase in dead-cell fraction
146 | AU565 | 0.579
